The source of these data is the supplement of paper PMC10307832.

Common to all, as to experiment: relative viability (nuclei count vs DMSO), 5 days (fraction); higher = more cells survive
Compound in the experiment “Masitinib + Pictilisib”: Cc1ccc(NC(=O)c2ccc(CN3CCN(C)CC3)cc2)cc1Nc1nc(-c2cccnc2)cs1 [Masitinib] + CS(=O)(=O)N1CCN(Cc2cc3nc(-c4cccc5[nH]ncc45)nc(N4CCOCC4)c3s2)CC1 [Pictilisib] (partner 1 µM)
Summed up: (§1)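 Values are medians from duplicate plates. Each reflects relative viability, defined as the nuclei count of treated wells over that of vehicle wells. Lung cancer cell lines in 1536-well plates were pin-tool dosed one day after seeding with one drug alone or with a fixed anchor-drug dose plus five library-drug doses (not always all listed) in √10 steps, then fixed, stained and imaged at 4× after 5 days.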

Compound in the experiment “Masitinib + Pemetrexed”: Cc1ccc(NC(=O)c2ccc(CN3CCN(C)CC3)cc2)cc1Nc1nc(-c2cccnc2)cs1 [Masitinib] + Nc1nc2[nH]cc(CCc3ccc(C(=O)N[C@@H](CCC(=O)O)C(=O)O)cc3)c2c(=O)[nH]1 [Pemetrexed] (partner 0.2 µM)
Summed up:
as §1

Compound in experiment [1]: CC1=CC(=CC=C1)NC2=NC(=CS2)C3=CC=NC=C3 + CS(=O)(=O)CCNCc1ccc(-c2ccc3ncnc(Nc4ccc(OCc5cccc(F)c5)c(Cl)c4)c3c2)o1 [Lapatinib] (partner 2 µM)
In outline:
as §1

Compound in the experiment “Masitinib + Navitoclax”: Cc1ccc(NC(=O)c2ccc(CN3CCN(C)CC3)cc2)cc1Nc1nc(-c2cccnc2)cs1 [Masitinib] + CC1(C)CCC(c2ccc(Cl)cc2)=C(CN2CCN(c3ccc(C(=O)NS(=O)(=O)c4ccc(N[C@H](CCN5CCOCC5)CSc5ccccc5)c(S(=O)(=O)C(F)(F)F)c4)cc3)CC2)C1 [Navitoclax] (partner 0.5 µM)
Summed up:
as §1

As for UMC-11, the relative viability is 0.744 with Masitinib + Pictilisib (first compound 0.01 µM); 0.862 in the experiment with Masitinib + Pictilisib (first compound 0.03162 µM); 0.948 in the experiment with Masitinib + Pictilisib (first compound 0.1 µM); 0.972 in the experiment with Masitinib + Pictilisib (first compound 0.3162 µM); 0.856 in the experiment with Masitinib + Pictilisib (first compound 1 µM); 0.755 with Masitinib + Pemetrexed (first compound 0.01 µM). Moreover, the relative viability with Masitinib + Pemetrexed (first compound 0.03162 µM) stood at 0.751; with Masitinib + Pemetrexed (first compound 0.1 µM), 0.783; in the experiment with Masitinib + Pemetrexed (first compound 0.3162 µM) it was 0.813; with Masitinib + Pemetrexed (first compound 1 µM) it was 0.882; in experiment [1] (first compound 0.08 µM) it was 0.839; in experiment [1] (first compound 0.253 µM), 0.85. Further, the relative viability in experiment [1] (first compound 0.8 µM) came to 0.885; in experiment [1] (first compound 2.53 µM) it was 0.934; in experiment [1] (first compound 8 µM), 1.02; with Masitinib + Navitoclax (first compound 0.01 µM) it was 0.286; in the experiment with Masitinib + Navitoclax (first compound 0.03162 µM) it was 0.321; with Masitinib + Navitoclax (first compound 0.1 µM), 0.353. Moreover, the figures for the relative viability in the experiment with Masitinib + Navitoclax (first compound 0.3162 µM) and with Masitinib + Navitoclax (first compound 1 µM) were 0.338 and 0.353, respectively.
